Measured values reported in patent US10590109B2, “Heterocyclic compounds used as FGFR inhibitors” (Nanjing InnoCare Pharma Tech Co., Ltd., priority 2016, dated 2020).
pIC50: −log10 of the molar value.

Columns and labels:
[1] = target: human recombinant FGFR2 catalytic structural domain protein (Homo sapiens (Human), UniProt P21802); test: FGFR2 activity inhibition test (HTRF kinase assay); type: biochemical; details: 50 μM ATP
Procedure: FGFR2 Activity Inhibition Test
The influence of the compound according to the present invention on the activity of fibroblast growth factor receptor 2 (FGFR2) was evaluated by an in vitro kinase assay experiment.
(§1) The experimental method is summarized as follows:
The in vitro activity of FGFR2 was determined by assaying the phosphorylation level of the substrate in the kinase reaction, by means of an HTRF kinase assay kit. The reaction buffer comprised the following components: 5-fold diluted Enzymatic buffer/kinase 5× (Cisbio, Catalog number 62EZBFDD) (main ingredient: 50 mM HEPES, pH 7.0), 5 mM MgCl2, 1 mM DTT; the human recombinant FGFR2 catalytic structural domain protein (amino acids 400-821) was commercially available from Beijing Sino Biological Inc., diluted with the reaction buffer to a 0.045 ng/μL kinase solution; the substrate reaction solution comprised a biotin labeled tyrosine kinase substrate diluted with the reaction buffer to 800 nM (Cisbio, catalog number 62TK0PEC), and 50 μM ATP, and the assay solution comprised an Eu^3+ labeled cage-shaped antibody (Cisbio, Catalog number 61T66KLB) diluted with the assay buffer (Cisbio, Catalog number 62SDBRDF) to 0.125 ng/μL, and 50 nM streptavidin labeled XL665 (Cisbio, Catalog number 610SAXLB).
(§2) The compound was dissolved and diluted in 100% DMSO to 100 μM, then 4-fold-series diluted with DMSO to a minimum concentration of 0.0061 μM, and each concentration point was then 40-fold diluted with the reaction buffer. If the IC50 value of the compound was very low, the initial concentration of the compound could be reduced.
(§3) 4 μL of a compound solution and 2 μL of an FGFR2 kinase solution were added into a 384 well assay plate (Thermo, Catalog number 264706), mixed uniformly and then incubated for 15 min at room temperature; subsequently, 4 μL of the substrate reaction solution was added therein, and the reaction mixture was incubated for 60 min at room temperature; and then 10 μL of an assay solution of an equal volume to the reaction was added therein and mixed uniformly, followed by placement at room temperature. After 60 min, the enzyme reaction was terminated by EDTA in the assay solution, and the phosphorylated products were identified by both the Eu^3+ labeled cage-shaped antibody (donor) and the streptavidin labeled XL665 antibody (receptor) at the same time. After the excitation with laser, the donors and receptors that were close to each other experienced energy resonance transfer, and the energy transferred from the donor (620 nm) to the receptor (665 nm) could be detected with Envision. The ratio of 665/620 is in positive correlation to the phosphorylation degree of the substrate, thereby to detect the FGFR2 kinase activity. […] The inhibition percentage of the compound against FGFR2 activity could be calculated with the following formula: Inhibition percentage=100−100*(signalcompound−signalnegative control)/(signalpositive control−signalnegative control)
The IC50 value of the compound was calculated by the following formula, from 10 concentration points, with XLfit (ID Business Solutions Ltd., UK): Y=Bottom+(Top−Bottom)/(1+10^((Log IC50−X)*slope factor))
Where, Y is the inhibition percentage, Bottom is the bottom plateau of the curve (the bottom plateau of the S-type curve), Top is the top plateau of the curve (the top plateau of the S-type curve), and X is the log value of the compound concentration to be measured.

[2] = target: human recombinant FGFR3 catalytic structural domain protein (Homo sapiens (Human), UniProt P22607); test: FGFR3 activity inhibition test (HTRF kinase assay); type: biochemical; details: 90 μM ATP
Chain of human recombinant FGFR3 catalytic structural domain protein (P22607 399-806): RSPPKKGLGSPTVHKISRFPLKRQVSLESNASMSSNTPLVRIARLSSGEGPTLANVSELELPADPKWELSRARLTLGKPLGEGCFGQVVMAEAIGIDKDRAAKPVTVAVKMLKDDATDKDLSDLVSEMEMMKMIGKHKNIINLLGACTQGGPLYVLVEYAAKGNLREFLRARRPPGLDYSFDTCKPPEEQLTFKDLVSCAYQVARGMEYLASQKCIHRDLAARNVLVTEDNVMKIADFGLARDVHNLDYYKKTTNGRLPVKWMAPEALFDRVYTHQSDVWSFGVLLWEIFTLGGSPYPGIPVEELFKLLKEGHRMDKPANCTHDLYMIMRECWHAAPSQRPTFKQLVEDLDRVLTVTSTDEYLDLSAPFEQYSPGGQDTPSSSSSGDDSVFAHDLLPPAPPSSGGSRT
Procedure: FGFR3 Activity Inhibition Test
The influence of the compound according to the present invention on the activity of fibroblast growth factor receptor 3 (FGFR3) was evaluated by an in vitro kinase assay experiment.
as §1
The in vitro activity of FGFR3 was determined by assaying the phosphorylation level of the substrate in the kinase reaction, by means of an HTRF kinase assay kit. The reaction buffer comprised the following components: 5-fold diluted Enzymatic buffer/kinase 5× (Cisbio, Catalog number 62EZBFDD) (main ingredient: 50 mM HEPES, pH 7.0), 5 mM MgCl2, 1 mM DTT; the human recombinant FGFR3 catalytic structural domain protein (amino acids 399-806) was commercially available from Sino Biological Inc., diluted with the reaction buffer to a 0.3 ng/μL kinase solution; the substrate reaction solution comprised a biotin labeled tyrosine kinase substrate diluted with the reaction buffer to 1000 nM (Cisbio, catalog number 62TK0PEC), and 90 μM ATP, and the assay solution comprised an Eu^3+ labeled cage-shaped antibody (Cisbio, Catalog number 61T66KLB) diluted with the assay buffer (Cisbio, Catalog number 62SDBRDF) to 0.125 ng/μL, and 62.5 nM streptavidin labeled XL665 (Cisbio, Catalog number 610SAXLB).
as §2
as §3, with “an FGFR3” for “an FGFR2”, “the FGFR3” for “the FGFR2”
The IC50 value of the compound was calculated by the following formula, from 10 concentration points, with XLfit (ID Business Solutions Ltd., UK): Y=Bottom+(Top−Bottom)/(1+10^((Log IC50−X)*slope factor)) Where, Y is the inhibition percentage, Bottom is the bottom plateau of the curve (the bottom plateau of the S-type curve), Top is the top plateau of the curve (the top plateau of the S-type curve), and X is the log value of the compound concentration to be measured.

Chain of human recombinant FGFR2 catalytic structural domain protein (P21802 400-821): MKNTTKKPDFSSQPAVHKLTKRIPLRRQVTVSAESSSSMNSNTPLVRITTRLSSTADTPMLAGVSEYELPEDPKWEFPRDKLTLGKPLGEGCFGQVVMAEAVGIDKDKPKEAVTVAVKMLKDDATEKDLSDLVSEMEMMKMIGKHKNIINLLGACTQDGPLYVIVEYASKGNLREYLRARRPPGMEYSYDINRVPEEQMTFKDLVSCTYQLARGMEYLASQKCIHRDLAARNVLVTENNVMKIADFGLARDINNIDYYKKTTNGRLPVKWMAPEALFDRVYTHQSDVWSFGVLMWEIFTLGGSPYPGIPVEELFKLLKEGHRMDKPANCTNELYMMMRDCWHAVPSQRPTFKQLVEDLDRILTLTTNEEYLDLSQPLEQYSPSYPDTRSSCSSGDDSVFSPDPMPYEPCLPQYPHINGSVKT

COC[C@@H](C)Oc1cc(NC(=O)N(C)c2ccc(CN3CCOCC3=O)c(C=O)n2)ncc1C#N [Compound 14, (R)-3-(5-cyano-4-((1-methoxyprop-2-yl)oxo)pyrid-2-yl)-1-(6-formyl-5-((3-carbonylmorpholino)methyl)pyrid-2-yl)-1-methylurea]
pIC50 [1]: < 6.00 | pIC50 [2]: < 6.00
